In brackets after ≈: the same amount, converted by molar mass. Where two headings read alike, the source gives them in different places. Bridge positions count the residues as written; N and C are the ends. Ends that are not written are not given here. Peptide text beside a SMILES is read from it.
How the values were obtained:
[1] = test system: Xanthomonas Perforans BAA983
[2] = test system: X. fastidiosa (PD strain)
[3] = test system: Salmonella; conditions: for MIC-human (μm) Salmonella: Table 9 lower part, c4
[4] = test system: Xanthomonas Euvesicatoria 11633
[5] = test system: Pseudomonas Resistant BAA-2114
[6] = test system: Pseudomonas WT 27853; conditions: for MIC-human (μm) Pseudomonas WT 27853: Table 9 lower part, c5
[7] = test system: X. fastidiosa (Xf) in infected grapevines; conditions: in vivo
[8] = test system: E. coli ATCC 25922; conditions: for MIC-E. coli (μM) 25922: Table 6; for MIC-E.Coli (μM) 25622: Table 9 lower part, c1
[9] = test system: HL60 cells
[10] = test system: human erythrocytes
[11] = test system: N. benthamiana mesophyll protoplasts
[12] = test system: P11-resistant E. coli BL21
[13] = test system: P11-resistant E. coli ATCC 25922
[14] = test system: P11-resistant E. coli K12; conditions: Table 3, K12-R
[15] = test system: E. coli BL21; conditions: Table 3, BL21-WT
[16] = test system: E. coli K12; conditions: Table 3, K12-WT
[17] = test system: E.Coli 14028; conditions: Table 9 lower part, c2
[18] = test system: human cells (red blood cells, immune cells HL-60, lung/skin epithelial cells)
[19] = test system: human and plant gram-negative bacteria

Molecule: KLIKLIKKILKKGPGRKKLIKKILKILK [Peptide 28P4]
- MIC-plant (μm) Xanthomonas Perforans BAA983 [1]: 2.5 µM
- MIC (μM) X. fastidiosa (PD strain) [2]: 3.0 ± 0.1 µM
- MIC-human (μm) Salmonella [3]: 1.3 µM
- MIC-plant (μm) Xanthomonas Euvesicatoria 11633 [4]: 2.5 µM
- MIC-human (μm) Pseudomonas Resistant BAA-2114 [5]: 2.5 µM
- MIC-human (μm) Pseudomonas WT 27853 [6]: 1.3 µM
- % Xf clearance from bark by qPCR [7]: completely clear
- % Xf clearance from green leaves by qPCR [7]: completely clear
- MIC-E. coli (μM) 25922 [8]: 2.1 µM
- MIC-E.Coli (μM) 25622 [8]: 2.1 µM

Molecule: RLLEKRLRRELERELRKQGPGRRLLEKRLRRELERELRKQ [Peptide 40P2]
- MIC-E. coli (μM) 25922 [8]: >20 µM

Molecule: CC[C@H](C)[C@H](NC(=O)[C@H](CCCCN)NC(=O)[C@H](CC(C)C)NC(=O)[C@@H]1CSSC[C@H](NC(=O)[C@H](CC(C)C)NC(=O)[C@H](CCCCN)NC(=O)[C@@H](NC(=O)[C@@H](N)CC(C)C)[C@@H](C)CC)C(=O)N[C@@H](CCCCN)C(=O)N[C@@H](CCCCN)C(=O)N[C@@H]([C@@H](C)CC)C(=O)N[C@@H](CC(C)C)C(=O)N[C@@H](CCCCN)C(=O)N[C@@H](CCCCN)C(=O)NCC(=O)N2CCC[C@H]2C(=O)NCC(=O)N[C@@H](CCCNC(=N)N)C(=O)N[C@@H](CCCCN)C(=O)N[C@@H](CCCCN)C(=O)N[C@@H](CC(C)C)C(=O)N[C@@H]([C@@H](C)CC)C(=O)N[C@@H](CCCCN)C(=O)N[C@@H](CCCCN)C(=O)N1)C(=O)N[C@@H](CC(C)C)C(=O)O [CYS26P] (H-LIKLCKKILKKGPGRKKLIKKCLKIL-OH; disulfide 5-22)
- MIC (μM) X. fastidiosa (PD strain) [2]: >20 µM
- toxicity to HL60 cells [9]: did not demonstrate toxicity
- MIC-human bacteria (μM) Salmonella ([3]; Table 9 upper part, c5): >20 µM
- MIC-human bacteria (μM) Pseudomonas WT ([6]; Table 9 upper part, c6): >20 µM
- toxicity to human erythrocytes [10]: did not demonstrate toxicity
- phytotoxicity, viability of N. benthamiana mesophyll protoplasts [11]: low phytotoxcicity
- MIC-E. coli (μM) 25922 [8]: 4.3 ± 0.4 µM (≈ 12.9 µg/mL)

Molecule: CC[C@H](C)[C@H](NC(=O)[C@H](CCCCN)NC(=O)[C@H](CC(C)C)NC(=O)[C@@H](NC(=O)[C@H](CCCCN)NC(=O)[C@H](CCCCN)NC(=O)[C@@H](NC(=O)[C@H](CC(C)C)NC(=O)[C@H](CCCCN)NC(=O)[C@@H](N)CCCCN)[C@@H](C)CC)[C@@H](C)CC)C(=O)N[C@@H](CC(C)C)C(=O)NC [Peptide 11P3, KKLIKKILKIL-(NHCH3)] (H-KKLIKKILKIL-NHMe)
- MIC-E. coli (μM) 25922 [8]: 3.7 ± 0.5 µM (≈ 5 µg/mL)

Molecule: LIRLLRRILRRGPGRRRLIRRLLRIL [Peptide 26P3]
- MIC-plant bacteria (μM) Xylela fastidiosa (grape) [2]: 4.8 µM

Molecule: EALRSRLEKRIYILYRDTPVVKSSSRQREELLRISLRELE [Peptide 40P1]
- MIC-E. coli (μM) 25922 [8]: >20 µM

Molecule: LIRLIRRILRRGPGRRRLIRRILRIL [Peptide 26P2]
- MIC-E. coli (μM) 25922 [8]: 1.3 to 2.5 µM

Molecule: LIKLIKKILKKGPGRKKLIKKILKIL [Peptide P26]
- MIC (μM) X. fastidiosa (PD strain) [2]: 4.75 ± 0.25 µM
- MIC-plant bacteria (μM) Xylela fastidiosa (grape) [2]: >20 µM
- toxicity to HL60 cells [9]: did not demonstrate toxicity
- MIC ([12]; BL21): 4.4 ± 0.3 µM
- MIC [13]: 9.5 ± 0.7 µM
- MIC [14]: 4.0 ± 0.6 µM
- MIC [15]: 1.95 ± 0.3 µM
- toxicity to human erythrocytes [10]: did not demonstrate toxicity
- phytotoxicity, viability of N. benthamiana mesophyll protoplasts [11]: low phytotoxcicity
- MIC [16]: 1.65 ± 0.3 µM
- MIC ([8]; Table 3, ATCC-WT): 1.65 ± 0.3 µM
- MIC-E. coli (μM) 25922 [8]: 1.7 ± 0.2 µM

Molecule: KEIVRRIEKFLRGPGRKRIVERIEKFLR [Peptide 28P8]
- MIC-plant (μm) Xylela fastidiosa (grape) [2]: 1.25-2.5(2) μM
- MIC-E.Coli (μM) 14028 [17]: 5 to 10 µM
- MIC-human (μm) Pseudomonas WT 27853 [6]: 5 to 10 µM
- MIC-E. coli (μM) 25922 [8]: 0.8 ± 0.1 µM

Molecule: KKLIKKILKIL [Peptide P11, KKLIKKILKIL]
- MIC (μM) X. fastidiosa (PD strain) [2]: 10 to 20 µM
- MIC [12]: 194 ± 12.5 µM
- MIC values BL21 ([12]; BL21): 194 µM
- MIC [13]: 192 ± 8.3 µM
- MIC values ATCC [13]: 200 µM

Molecule: ELLRRLLASLRRHDLLRGPGRELLRLLASLRRHDLLR [Peptide 38P1]
- MIC-E. coli (μM) 25922 [8]: 2.5 to 5 µM

Molecule: CC[C@H](C)[C@H](NC(=O)[C@H](CCCNC(=N)N)NC(=O)[C@H](CC(C)C)NC(=O)[C@@H](NC(=O)[C@H](CCCNC(=N)N)NC(=O)[C@H](CCCNC(=N)N)NC(=O)[C@@H](NC(=O)[C@H](CC(C)C)NC(=O)[C@H](CCCNC(=N)N)NC(=O)[C@@H](N)CCCNC(=N)N)[C@@H](C)CC)[C@@H](C)CC)C(=O)N[C@@H](CC(C)C)C(=O)NC [Peptide 11P5, RRLIRRILRIL-(NCH3)] (H-RRLIRRILRIL-NHMe; N-terminus and C-terminus assumed)
- MIC-E. coli (μM) 25922 [8]: 6.7 ± 0.9 µM (≈ 9.99 µg/mL)

Molecule: RKQLRELIERLLERIRKLGPGRREQLERLIERLERLIEKR [Peptide 40P3]
- MIC-E. coli (μM) 25922 [8]: >20 µM

Molecule: KKLIKKILKILGPGRKKLIKEILKILGPGRKKLIKKILKIL [Peptide 41P1]
- MIC-E. coli (μM) 25922 [8]: 4.50 ± 0.25 µM

Molecule: HPLIKLIKKILKKGPGRKKLIKKILKILGH [Peptide 30P1]
- MIC-E. coli (μM) 25922 [8]: 0.9 to 1.25 µM

Molecule: CC[C@H](C)[C@@H]1NC(=O)[C@H](CCCCN)NC(=O)[C@H](CC(C)C)NC(=O)[C@H]([C@@H](C)CC)NC(=O)[C@H](CCCCN)NC(=O)[C@H](CCCCN)NC(=O)[C@H]([C@@H](C)CC)NC(=O)[C@H](CC(C)C)NC(=O)[C@H](CCCCN)NC(=O)[C@H](CCCCN)NC(=O)[C@H](CCCNC(=N)N)NC(=O)CNC(=O)[C@@H]2CCCN2C(=O)CNC(=O)[C@H](CCCCN)NC(=O)[C@H](CCCCN)NC(=O)[C@H](CC(C)C)NC(=O)[C@H]([C@@H](C)CC)NC(=O)[C@H](CCCCN)NC(=O)[C@H](CCCCN)NC(=O)[C@H]([C@@H](C)CC)NC(=O)[C@H](CC(C)C)NC(=O)[C@H](CCCCN)NC(=O)[C@H]([C@@H](C)CC)NC(=O)[C@H](CC(C)C)NC(=O)[C@H](CCCNC(=N)N)NC(=O)CNC(=O)[C@@H]2CCCN2C(=O)CNC(=O)[C@H](CC(C)C)NC1=O [CYCLIC30P] (cyclo(GPGRKKLIKKILKILGPGRLIKLIKKILKK))
- MIC-E. coli (μM) 25922 [8]: 12 (2) μM
- MIC-E.Coli (μM) 25622 [8]: 12(2) μM

Molecule: KRIVQRIKDFLRGPGRKRIVQRIKDFLR [Peptide 28P2]
- concentration toxic to human cells [18]: above 20 μM
- MIC against one E. coli strain [19]: 6 µM
- MICs for human and plant bacteria [19]: 1.3 to 3 µM
- MIC-E. coli (μM) 25922 [8]: 6 (2) μM
- MIC-E.Coli (μM) 25622 [8]: 6(2) μM

Molecule: KRLIQRKRLIQRGPGRKRLIQRKRLIQR [Peptide 28P3]
- MIC-plant (μm) Xanthomonas Perforans BAA983 [1]: 20 µM
- MIC-human (μm) Salmonella [3]: >20 µM
- MIC-plant (μm) Xanthomonas Euvesicatoria 11633 [4]: 20 µM
- MIC-human (μm) Pseudomonas Resistant BAA-2114 [5]: >20 µM
- MIC-human (μm) Pseudomonas WT 27853 [6]: >20 µM
- MIC-E. coli (μM) 25922 [8]: >40 µM
- MIC-E.Coli (μM) 25622 [8]: >40 µM

Molecule: LIRLIRRILRRGPGRRRLIRRILRIL [Peptide 26P-1]
- MIC (μM) X. fastidiosa (PD strain) [2]: 4.75 µM
- MIC values BL21 ([12]; BL21): 4 µM
- MIC values ATCC [13]: 10 µM

Molecule: KLIRLIREILRRGPGRRRLIREILRILK [Peptide 28P6]
- MIC-plant (μm) Xylela fastidiosa (grape) [2]: 2.5-5(2) μM
- MIC-E.Coli (μM) 14028 [17]: 20 µM
- MIC-human (μm) Pseudomonas WT 27853 [6]: 5 to 10 µM
- MIC-E. coli (μM) 25922 [8]: 4.8 µM
- MIC-E.Coli (μM) 25622 [8]: 4.8 µM

Molecule: KEIVRRIKEFLRGPGRKEIVRRIKEFLR [Peptide 28P7]
- MIC-plant (μm) Xylela fastidiosa (grape) [2]: 2.5-5(2) μM
- MIC-E.Coli (μM) 14028 [17]: 20 µM
- MIC-human (μm) Pseudomonas WT 27853 [6]: 5 to 10 µM
- MIC-E. coli (μM) 25922 [8]: 4.3 µM
- MIC-E.Coli (μM) 25622 [8]: 4.3 µM

Reference: patent publication US20220053773A1 (priority 2018, published 2022)
